{
  "source": "patent US20220211813A1",
  "about": "“METHODS FOR TREATMENT OF NIEMANN-PICK DISEASE TYPE C” (LOMA LINDA UNIVERSITY, priority 2019, published 2022)",
  "origin": "cited, not measured here",
  "system": "IFN-γ",
  "details": "as described in Pododlin et al. J Pharmacol Exp Ther. 312(1):373-81, 2005",
  "data": [
    {"smiles": "NC(=O)Nc1sc(-c2ccc(F)cc2)cc1C(N)=O", "note": "[TPCA-1]", "values": [
      {"measurement": "blocks IFN-γ", "result": "about 50%"}
    ]}
  ]
}
